Measured values taken from PMC3813364 (Iranian Journal of Pharmaceutical Research : IJPR, 2013).
Entries after “also recorded” stand apart in the source; their conditions may differ.

Columns and labels:
[1] = test system: everted sacs of rat small intestine (jejunum); assay: Etoposide mucosal-to-serosal transport across everted gut sac in absence or presence of excipients/P-gp inhibitor; format: in vitro ADME; conditions: etoposide 25 μg/mL; verapamil 100 μg/mL, TPGS 0.002-0.1 mg/mL, PEG 400 0.05, 0.1 and 0.5% w/v; compared to control
Protocol: (§1) The everted sac method was used as previously described ([25]). Everted intestinal sacs were prepared by quickly removing the small intestine from starved rats killed under CO2-anesthesia. The jejunum was excised, flushed through several times with saline solution at room temperature and placed immediately into oxygenated buffer solution at 37°C. Then the intestine was gently everted over a steel rod, filled with fresh oxygenated buffer solution and divided into sacs approximately 4.5 cm in length with silk suture. […] At the defined time points sacs were removed and blotted dry. The sacs were cut open and the serosal fluid was drained into small Eppendorf vial to determine the drug concentration. The area of each sac was calculated closely. Each sac was weighed before and after fluid collection to calculate accurately the volume inside the sac.
(§2) The chromatographic data was acquired by Chromgate 3.1 software from Knauer. Analyses were carried out at ambient temperature on a Chromolith Performance RP-18e (100 mm 4.6 mm i.d., Merck) coupled with a Chromolith RP-18e guard cartridge (5.0 mm 4.6 mm i.d., Merck).

[2] = test system: everted sacs of rat small intestine (jejunum); assay: LDH release of the everted gut sac; conditions: TPGS 0.1 mg/mL, PEG 0.5% w/v, 90 min
Protocol: The viability and any possible damage of the gut were evaluated by measuring the release of the cytosolic enzyme lactic dehydrogenase (LDH) as an indicator of cell damage ([18]). The LDH activity was determined in the incubation media in the absence or presence of the excipients using LDH-P kit from Kimia pajouhan (Tehran, Iran). The results were calculated as U/L/cm^2 of sac area (1 unit reduces 10^-6 mol pyruvate per min at pH of 7.5). The influence of excipients (using the maximum concentrations) on the viability of gut sac was measured at 30, 60 and 90 min and compared to the control group (without adding any excipient).

[3] = test system: everted sacs of rat small intestine (jejunum); assay: Paracellular (lucifer yellow) and transcellular (imipramine) marker permeability across everted gut sac with or without TPGS; format: in vitro ADME
Protocol: as §1, §2

Effect on absorptive transport/permeability of etoposide (in words) [1] | LDH release in presence of excipient versus control [2] | Permeability of lucifer yellow ([3]; in absence of TPGS) | Permeability of lucifer yellow ([3]; in presence of TPGS 0.1 mg/mL) | Substance
no effect; also recorded: not affected | not notably changed |  |  | PEG 400
 |  | 9.3 ± 0.03 × 10^-6 cm/s | 9.65 ± 0.6 × 10^-6 cm/s | Lucifer yellow
